Laboratory results from BindingDB's records for patent US20230365537 (Oric Pharmaceuticals, 2023).
Several values for one entry are separate records, joined by “and”; a condition that tells them apart may be missing. Identical values can stand only once.

Assays:
Aurora kinase B = Aurora kinase B (Homo sapiens, UniProt Q96GD4); assay: Aurora B Kinase Biochemical Assay
Method: Activity of human recombinant Aurora B (ThermoFisher, cat #PR9210B) was measured by quantification of adenosine diphosphate (ADP) using the ADP-Glo Kinase Assay Kit (Promega, cat #V9102). […] 5 µL of 20 nM Aurora B in assay buffer (50 mM HEPES, pH 7.5, 0.01% Brij-35, 0.01% BSA, 10 mM MgCl2, 1 mM EGTA, 1 mM DTT) was added to the plates. Test compounds and Aurora B were incubated for 15 minutes at room temperature (RT). […] Reactions were stopped and the remaining ATP depleted by adding 10uL of ADP-Glo reagent (Promega, cat#V912B) and incubating for 40 minutes at RT. The simultaneous conversion of the remaining ADP to ATP and measurement of the newly synthesized ATP was achieved by addition of 20 µL Kinase Detection reagent (Promega, cat #V914B), incubation for 30 min at RT, and luminescence detection using the EnVision plate reader (PerkinElmer). […] The IC50 values reported in Table 2 were determined using four parameter

Aurora kinase A = target: T1, Aurora kinase A (Homo sapiens, UniProt O14965); assay: Aurora A Kinase Biochemical Assay
T1 sequence (O14965 whole entry): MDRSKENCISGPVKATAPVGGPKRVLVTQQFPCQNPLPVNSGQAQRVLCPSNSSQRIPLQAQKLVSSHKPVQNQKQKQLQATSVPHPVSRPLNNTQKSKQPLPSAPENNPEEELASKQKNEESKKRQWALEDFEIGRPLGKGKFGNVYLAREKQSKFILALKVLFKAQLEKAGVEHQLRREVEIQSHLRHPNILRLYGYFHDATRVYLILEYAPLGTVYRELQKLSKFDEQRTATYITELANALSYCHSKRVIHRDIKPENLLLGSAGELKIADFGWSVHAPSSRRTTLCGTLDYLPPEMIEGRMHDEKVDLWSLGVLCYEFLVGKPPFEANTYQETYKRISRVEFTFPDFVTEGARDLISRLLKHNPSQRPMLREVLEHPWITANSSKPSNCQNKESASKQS
Method: (§1) Activity of human recombinant Aurora A (ThermoFisher, cat #PR5935A) was measured by quantification of adenosine diphosphate (ADP) using the ADP-Glo Kinase Assay Kit (Promega, cat #V9102). […] 5 µL of 5.0 nM Aurora A in assay buffer (50 mM HEPES, pH 7.5, 0.01% Brij-35, 0.01% BSA, 10 mM MgCl2, 1 mM EGTA, 1 mM DTT) was added to the plates. Test compounds and Aurora A were incubated for 15 minutes at room temperature (RT). […] Reactions were stopped and the remaining ATP depleted by adding 10uL of ADP-Glo reagent (Promega, cat#V912B) and incubating for 40 minutes at RT. The simultaneous conversion of the remaining ADP to ATP and measurement of the newly synthesized ATP was achieved by addition of 20 µL Kinase Detection reagent (Promega, cat #V914B), incubation for 30 min at RT, and luminescence detection using the EnVision plate reader (PerkinElmer). […] The IC50 values reported in Table 2 were determined using four parameter non-linear regression curve fit.

[1] = target: T2, Serine/threonine-protein kinase PLK4 (Homo sapiens, UniProt O00444); assay: PLK4 Biochemical Assay
T2 sequence (O00444 whole entry): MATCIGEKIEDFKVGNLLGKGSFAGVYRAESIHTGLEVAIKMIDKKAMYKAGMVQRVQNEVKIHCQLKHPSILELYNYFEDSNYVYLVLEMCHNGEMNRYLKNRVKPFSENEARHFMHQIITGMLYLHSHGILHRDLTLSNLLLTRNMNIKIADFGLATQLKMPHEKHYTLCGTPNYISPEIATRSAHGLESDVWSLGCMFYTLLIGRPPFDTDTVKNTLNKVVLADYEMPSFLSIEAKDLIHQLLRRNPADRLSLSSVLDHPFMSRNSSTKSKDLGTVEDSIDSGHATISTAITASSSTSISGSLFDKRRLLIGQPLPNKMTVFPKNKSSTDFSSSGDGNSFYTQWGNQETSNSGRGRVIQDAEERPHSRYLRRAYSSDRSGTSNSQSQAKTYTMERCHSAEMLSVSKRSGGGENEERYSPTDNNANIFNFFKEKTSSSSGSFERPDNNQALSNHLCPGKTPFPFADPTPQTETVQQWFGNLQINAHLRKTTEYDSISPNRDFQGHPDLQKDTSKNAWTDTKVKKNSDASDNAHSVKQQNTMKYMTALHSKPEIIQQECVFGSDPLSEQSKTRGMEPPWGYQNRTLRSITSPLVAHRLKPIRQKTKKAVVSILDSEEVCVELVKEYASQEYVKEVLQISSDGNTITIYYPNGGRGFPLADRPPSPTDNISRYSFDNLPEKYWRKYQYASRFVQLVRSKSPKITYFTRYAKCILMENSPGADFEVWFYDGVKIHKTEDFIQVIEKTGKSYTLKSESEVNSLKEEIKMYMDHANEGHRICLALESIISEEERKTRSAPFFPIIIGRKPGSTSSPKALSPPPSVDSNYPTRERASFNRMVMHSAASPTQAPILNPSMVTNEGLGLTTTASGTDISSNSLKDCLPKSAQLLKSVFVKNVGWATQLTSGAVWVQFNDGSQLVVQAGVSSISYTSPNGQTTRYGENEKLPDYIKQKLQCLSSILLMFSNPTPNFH
Method: as §1, with “recombinant PLK4” for “recombinant Aurora A”, “cat #PV6396)” for “cat #PR5935A)”, “of 1.0” for “of 5.0”, “nM PLK4 protein” for “nM Aurora A”, “and PLK4” for “and Aurora A”, “adding 10 µL” for “adding 10uL”

Sequence of Aurora kinase B (Q96GD4 whole entry): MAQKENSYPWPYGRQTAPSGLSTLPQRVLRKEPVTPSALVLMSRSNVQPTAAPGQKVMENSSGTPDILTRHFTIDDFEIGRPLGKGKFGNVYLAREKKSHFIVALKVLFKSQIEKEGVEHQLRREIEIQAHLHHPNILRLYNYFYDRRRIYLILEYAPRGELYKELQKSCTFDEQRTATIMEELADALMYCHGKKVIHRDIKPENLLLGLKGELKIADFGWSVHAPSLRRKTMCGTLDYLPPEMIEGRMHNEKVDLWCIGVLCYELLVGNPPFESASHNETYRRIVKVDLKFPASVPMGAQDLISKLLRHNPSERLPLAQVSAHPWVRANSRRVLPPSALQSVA

| IC50 (Aurora kinase B) | IC50 (Aurora kinase A) | IC50 [1] | SMILES |
| --- | --- | --- | --- |
| 0.521 µM and 1.06 µM | 1.86 µM and 2.03 µM |  | COc1ccc2c(c1)[C@]1(C[C@H]1c1ccc3c(Nc4ccc(S(C)(=O)=O)nc4OC)n[nH]c3c1)C(=O)N2 [US20230365537, Example 168] |
|  |  | 0.0028 µM | COc1ccc2c(c1)[C@]1(C[C@H]1c1ccc3c(Nc4cc(N5CCN(C)C5=O)cnc4OC)n[nH]c3c1)C(=O)N2 [US20230365537, Example 221] |
|  |  | 0.00402 µM | COc1ccc2c(c1)[C@]1(C[C@H]1c1ccc3c(Nc4cc(S(=O)(=O)C5CCOCC5)ccc4OC)n[nH]c3c1)C(=O)N2 [US20230365537, Example 224] |
